Experimental data taken from patent US5668157A, “Cyanoguanidines as K-channel blockers” (Pharmacia & Upjohn Company, priority 1996, dated 1997).

How the values were obtained:
[1] = tested on: K^+ channel, rabbit mesenteric artery (RMA) rings; conditions: pinacidil 1 μM, norepinephrine-contracted RMA rings; cited from earlier work
[2] = tested on: K^+ channel, rabbit mesenteric artery (RMA) rings; test: Inhibition of pinacidil-induced relaxation of norepinephrine-contracted isolated rabbit mesenteric artery (RMA) rings (K^+ channel antagonism); assay type: cell-based; conditions: Oryctolagus cuniculus, 0.25 h, pinacidil 1 μM, norepinephrine 5 μM, read-out: RMA K^+ Antagonism % I (percent inhibition of pinacidil relaxation at 15 minutes); for inhibition at 10 µM: conc. 10 μM; for inhibition at 0.1 µM: conc. 0.1 μM; for inhibition at 0.3 µM: conc. 0.3 μM
Method: The results for potassium channel blocking were obtained by using isolated rabbit mesenteric artery (RMA) procedures. Norepinephrine (5 μM) was used to contract the RMA rings twice, with an hour separating the two contractions. During this hour the tissues equilibrated in physiological salt solution at a resting tension of 1 gram. Upon the plateau of the second contraction 1 μM pinacidil was added to all tissues and the resulting relaxation time course was studied for thirty minutes. […] By studying the ability of the test compounds to inhibit this pinacidil-induced relaxation, the degree of potassium antagonism could be determined. The compounds were applied to the tissues for one hour between the two contractions and the pinacidil-induced relaxation was studied in the continuing presence of the compounds. Thus, the total time of pretreatment with the test compound was 75 minutes before the addition of pinacidil.
(§1) Data for K^+ channel antagonist activity on rabbit mesenteric artery (RMA) and natriuretic efficacy after […] (IP) administration to rats are collected in Table II.
^a Lowest inhibitor concentration (μM) that gave greater than 20%
inhibition or lowest concentration tested.
^b This is a measure of a compound's ability to inhibit the relaxatio
of norepinephrine (5 μM) contracted rabbit mesenteric artery rings by
pinacidil (1 μM). It is expressed as percent inhibition. Compounds wit
65% or greater inhibition at 5 μM are considered to be active, with
20-65% inhibition moderately active and with less than 20% inhibition

[3] = Diuretic screen: urinary Na^+ excretion after IP administration to rats; assay type: in vivo, rat (female Harlan Sprague-Dawley); conditions: rat, IP, 5, 15 and 30 mg/kg, 5 hour test period
Method: as §1
The diuretic activity was determined in female Harlan Sprague-Dawley rats weighing 200 to 230 grams that were fasted 15 hours overnight, and then were deprived of both food and water for an additional hour prior to dosing. […] It approximates the area under the dose response curve. The vehicle was 20% dimethylacetamide (DMA; v/v) in a pH 7.4 phosphate buffer (0.58% Na2 HPO4 and 0.13% NaH2 PO4.H2 O). Sufficient drug was suspended in 1 to 2 ml of this vehicle to deliver doses of 5, 15 and 30 mg/kg in a volume of 0.5 ml (2-4 rats/dose). At least 2 vehicle control rats, and, for most tests, 2 standard diuretic treated rats were included in each experiment. Standards used as comparators included the K^+ retaining diuretic amiloride and the K^+ wasting diuretics furosemide, hydrochlorothiazide and metolazone.
Following their IP doses, the rats' urinary bladders were gently compressed to eliminate all pretreatment urine, and two identically treated rats were placed in a stainless steel metabolism cage equipped with a graduated test tube to collect voided urine. At 2 and 5 hours post treatment, the rats' bladders were again compressed, the volume of urine excreted by the pair of rats was recorded, and aliquots of urine were retained for analysis of Na^+ and K^+ concentrations with a NOVA-13 selective ion analyzer. Following the 5 hour urine collection, the rats were returned to their stock cages, and at least 1 week of recovery was allowed between a maximum of 3 diuretic tests.
The electrolyte concentrations detected in these urine samples were manually multiplied by their respective volumes to determine total milliequivalent (mEq) excretion of Na^+ and K^+ per pair of rats, and the results obtained with multiple racks per drug treatment were averaged. Increases in urinary Na^+ excretion of 50% or more above the pooled control tests were regarded as reflecting activity.
^c This represents the net increase (above control) in urinary
Na^+ excretion (μEq) for the 5 hour test period divided by the
total of the three drug doses (mg/kg) administered IP in the stage II
diuretic screen in rats. It approximates the area under the dose response

Structure (SMILES)	inhibition at 10 µM [2]	5 h Net Natriuretic Efficacy (net increase above control in urinary Na^+ excretion divided by total of three doses) [3]	other results
CC(N/C(=N\C#N)Nc1ccncc1)C(C)(C)C (centres unmarked) [pinacidil]	–	–	K^+ channel dependent vasodilation by pinacidil [1]: maximal K^+ channel dependent vasodilation
CC[C@@H](NC(=NC#N)Nc1ccc(NCCF)nc1)c1ccccc1 [Compound 10, (R)-N-[6-(2-Fluoroethylamino)-3-pyridyl]-N"-cyano-N'-(1-phenylpropyl)guanidine]	72.3%	34 μEq Na^+ /mg/kg	–
CN(C)c1ncccc1NC(=NC#N)NC1(c2ccccc2)CCC1 [Compound 4, N-[2-(Dimethylamino)-3-pyridyl]-N"-cyano-N'-(1-phenylcyclobutyl)guanidine]	–	10 μEq Na^+ /mg/kg	inhibition at 2 µM ([2]; conc. 2.0 μM): 87%
CC[C@@H](N=C(NC#N)Nc1cccnc1Cl)c1ccccc1 [Compound 6, (R)-N-(2-chloro-3-pyridyl)-N'-cyano-N"-(1-phenylpropyl)guanidine]	–	48 μEq Na^+ /mg/kg	inhibition at 0.1 µM [2]: 77.5%
C[C@@H](NC(=NC#N)Nc1cccnc1N(C)C)c1ccccc1 [Compound 5, (R)-N-[2-(Dimethylamino)-3-pyridyl]-N"-cyano-N'-(1-phenylethyl)guanidine]	–	15 μEq Na^+ /mg/kg	inhibition at 5 µM ([2]; conc. 5 μM): 17.4%
CC[C@@H](NC(=NC#N)Nc1cncc(Br)c1)c1ccccc1 [Compound 9, (R)-N-(5-Bromo-3-pyridyl)-N"-cyano-N'-(1-phenylpropyl)guanidine]	94.6%	12 μEq Na^+ /mg/kg	–
N#CN=C(Nc1cnc(Cl)c(N)c1)NC1(c2ccccc2)CCC1 [Compound 1, N-(5-Amino-6-chloro-3-pyridyl)-N"-cyano-N'-(1-phenylcyclobutyl)guanidine]	–	39 μEq Na^+ /mg/kg	inhibition at 0.1 µM [2]: 90%
CC[C@@H](NC(=NC#N)Nc1cccnc1C)c1ccccc1 [Compound 11, (R)-N-(2-Methyl-3-pyridyl)-N"-cyano-N'-(1-phenylpropyl)guanidine]	91.6%	25 μEq Na^+ /mg/kg	–
N#CN=C(Nc1cncc(N)c1)NC1(c2ccccc2)CCC1 [Compound 3, N-(5-Amino-3-pyridyl)-N"-cyano-N'-(1-phenylcyclobutyl)guanidine]	–	50 μEq Na^+ /mg/kg	inhibition at 0.3 µM [2]: 93%
N#CN=C(Nc1ccc(NCCF)nc1)NC1(c2ccccc2)CCC1 [Compound 7, N-[6(2-Fluoroethylamino)-3-pyridyl]-N"-cyano-N'-(1-phenylcyclobutyl)guanidine]	–	60 μEq Na^+ /mg/kg	inhibition at 1 µM ([2]; conc. 1.0 μM): 24.3%
Cc1nc(N)ccc1NC(=NC#N)NC1(c2ccccc2)CCC1 [Compound 2, N-(6-Amino-2-methyl-3-pyridyl)-N"-cyano-N'-(1-phenylcyclobutyl)guanidine, methanol solvate]	–	77 μEq Na^+ /mg/kg	inhibition at 0.3 µM [2]: 96%
CC[C@@H](NC(=NC#N)Nc1cncc(N)c1)c1ccccc1 [Compound 12, (R)-N-(5-Amino-3-pyridyl)-N"-cyano-N'-(1-phenylpropyl)guanidine]	85.8%	26 μEq Na^+ /mg/kg	–
CC(=O)Nc1cncc(NC(=NC#N)NC2(c3ccccc3)CCC2)c1 [Compound 13, N-(5-Acetylamino-3-pyridyl)-N"-cyano-N'-(1-phenylcyclobutyl)guanidine]	6.4%	15 μEq Na^+ /mg/kg	–
CC[C@@H](NC(=NC#N)Nc1ccc(C)nc1)c1ccccc1 [Compound 8, (R)-N-(6-Methyl-3-pyridyl)-N"-cyano-N'-(1-phenylpropyl)guanidine]	84.1%	25 μEq Na^+ /mg/kg	–
CC[C@@H](NC(=NC#N)Nc1ccc(NS(C)(=O)=O)nc1)c1ccccc1 [Compound 14, (R)-N-(6-Methanesulfonylamino-3-pyridyl)-N"-cyano-N'-(1-phenylpropyl)guanidine]	–	21 μEq Na^+ /mg/kg	inhibition at 30 µM ([2]; conc. 30 μM): 2.3%
